Measured values reported in PubChem BioAssay AID256 (DTP/NCI, 2004).
“And” between values parts separate entries of the source, which are not always exact repeats. Equal entries are not always repeated. Inconclusive results and toxic doses are left out. How the source made its calls: active means survival T/C of 150% or more; inactive means T/C below 125% in these data.

Test system: CD2F1 mice, L1210 leukemia ip, survival T/C
Test: NCI In Vivo Anticancer Drug Screen. Data for tumor model L1210 Leukemia (intraperitoneal) in CD2F1 (CDF1) mice
Settings: endpoint: mean survival time, higher = longer survival
Outline: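 Transplantable tumor in mice; compound-treated vs vehicle-treated groups. Read-out = treated/control ratio of the measured endpoint.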

[1] = dose: 100.0 mg/kg/injection, schedule: Q01DX009 (ip), vehicle: saline with Tween-80
[2] = dose: 200.0 mg/kg/injection, schedule: Q01DX009 (ip), vehicle: saline with Tween-80
[3] = dose: 400.0 mg/kg/injection, schedule: Q01DX009 (ip), vehicle: saline with Tween-80
[4] = dose: 100.0 mg/kg/injection, schedule: Q04DX002 (ip), vehicle: saline with Tween-80
[5] = dose: 200.0 mg/kg/injection, schedule: Q04DX002 (ip), vehicle: saline with Tween-80
[6] = dose: 400.0 mg/kg/injection, schedule: Q04DX002 (ip), vehicle: saline with Tween-80
[7] = dose: 100.0 mg/kg/injection, schedule: Q04DX002 (ip), vehicle: other
[8] = dose: 100.0 mg/kg/injection, schedule: Q04DX003 (ip), vehicle: saline with Tween-80
[9] = dose: 200.0 mg/kg/injection, schedule: Q04DX003 (ip), vehicle: saline with Tween-80
[10] = dose: 400.0 mg/kg/injection, schedule: Q04DX003 (ip), vehicle: saline with Tween-80

Measured: T/C

NNC(=O)c1ncn(C2OC(CO)C(O)C2O)c1C(=O)NN (configuration not stated)
inactive: dose: 12.5 mg/kg/injection, schedule: Q01DX005 (ip), vehicle: water 103 % of control | dose: 25.0 mg/kg/injection, schedule: Q01DX005 (ip), vehicle: water 101 % of control | dose: 50.0 mg/kg/injection, schedule: Q01DX005 (ip), vehicle: water 95 % of control | dose: 100.0 mg/kg/injection, schedule: Q01DX005 (ip), vehicle: water 103 % of control | dose: 200.0 mg/kg/injection, schedule: Q01DX005 (ip), vehicle: water 97 % of control

O=C1CCCCCCCC1O (configuration not stated)
inactive: [1] 95 % of control | [2] 94 % of control | [3] 105 % of control

CCCC[N+](CCCC)(CCCC)CCCC.[Cl-].[Cl-].[Cl-].[Cl-].[Cl-].[Cl-].[Cl-].[Cl-].[Re].[Re]
inactive: [4] 112 % of control | [5] 112 % of control | [6] 116 % of control

COc1ccccc1NC(=O)Oc1cccc(C)c1
inactive: [4] 91 % of control | [5] 88 % of control | [6] 91 % of control

CN(C)N=Nc1ccc([N+](=O)[O-])cc1C(N)=O
inactive: dose: 18.8 mg/kg/injection, schedule: Q01DX009 (ip), vehicle: Klucel (hydroxypropylcellulose) (HPC) 95 % of control and 101 % of control | dose: 37.5 mg/kg/injection, schedule: Q01DX009 (ip), vehicle: Klucel (hydroxypropylcellulose) (HPC) 96 % of control and 110 % of control | dose: 75.0 mg/kg/injection, schedule: Q01DX009 (ip), vehicle: Klucel (hydroxypropylcellulose) (HPC) 101 % of control and 110 % of control | dose: 300.0 mg/kg/injection, schedule: Q01DX009 (ip), vehicle: Klucel (hydroxypropylcellulose) (HPC) 89 % of control

CCCCn1ccnc1C
inactive: dose: 6.25 mg/kg/injection, schedule: Q01DX009 (ip), vehicle: saline 102 % of control | dose: 6.25 mg/kg/injection, schedule: Q04DX003 (ip), vehicle: saline 94 % of control | dose: 12.5 mg/kg/injection, schedule: Q01DX009 (ip), vehicle: saline 103 % of control | dose: 12.5 mg/kg/injection, schedule: Q04DX003 (ip), vehicle: saline 94 % of control | dose: 25.0 mg/kg/injection, schedule: Q01DX009 (ip), vehicle: saline 103 % of control | dose: 25.0 mg/kg/injection, schedule: Q04DX003 (ip), vehicle: saline 94 % of control

O=C(Nc1ccc(Cl)c(Cl)c1)Nc1ccc(Cl)c(Cl)c1 (tested in a mixture with another compound)
inactive: [4] 97 % of control | [5] 90 % of control | [6] 97 % of control

CCOC(=O)c1c(C)c2c(n1C)CC/C(=C\O)C2=O
inactive: dose: 25.0 mg/kg/injection, schedule: Q04DX002 (ip), vehicle: other 100 % of control | dose: 50.0 mg/kg/injection, schedule: Q04DX002 (ip), vehicle: other 96 % of control | [7] 88 % of control and 96 % of control

CC(=O)Nc1ccc(C(=O)C=P(c2ccccc2)(c2ccccc2)c2ccccc2)cc1
inactive: dose: 100.0 mg/kg/injection, schedule: Q01DX001 (ip), vehicle: saline 101 % of control | dose: 200.0 mg/kg/injection, schedule: Q01DX001 (ip), vehicle: saline 97 % of control | dose: 400.0 mg/kg/injection, schedule: Q01DX001 (ip), vehicle: saline 97 % of control

Nc1nc2c(nc(Br)n2C2OC(CO)C(O)C2O)c(=O)[nH]1 (configuration not stated)
inactive: [8] 98 % of control | [9] 102 % of control | [10] 94 % of control

COc1ccc(CCN2COc3ccc4ccc(=O)oc4c3C2)cc1OC
inactive: [1] 92 % of control | [2] 97 % of control | [3] 97 % of control

COC(=O)C1(C)CSCCC1=O (configuration not stated)
inactive: dose: 100.0 mg/kg/injection, schedule: Q04DX003 (ip), vehicle: saline 107 % of control | dose: 200.0 mg/kg/injection, schedule: Q04DX003 (ip), vehicle: saline 96 % of control | dose: 400.0 mg/kg/injection, schedule: Q04DX003 (ip), vehicle: saline 96 % of control

O=C(NCc1ccccc1)c1ccc([N+](=O)[O-])cc1
inactive: [7] 97 % of control | dose: 200.0 mg/kg/injection, schedule: Q04DX002 (ip), vehicle: other 101 % of control | dose: 400.0 mg/kg/injection, schedule: Q04DX002 (ip), vehicle: other 97 % of control

CCCCCCCCCCCCCCC[N+]1(C)CCSCC1
inactive: dose: 25.0 mg/kg/injection, schedule: Q01DX001 (ip), vehicle: saline with Tween-80 100 % of control | dose: 50.0 mg/kg/injection, schedule: Q01DX001 (ip), vehicle: saline with Tween-80 95 % of control

CC1COC(=O)O1 (configuration not stated)
inactive: dose: 100.0 mg/kg/injection, schedule: Q01DX009 (ip), vehicle: saline 101 % of control | [8] 97 % of control | dose: 200.0 mg/kg/injection, schedule: Q01DX009 (ip), vehicle: saline 98 % of control | [9] 97 % of control | dose: 400.0 mg/kg/injection, schedule: Q01DX009 (ip), vehicle: saline 101 % of control | [10] 96 % of control

Cc1noc2c1ncc[n+]2[O-]
inactive: dose: 5.0 mg/kg/injection, schedule: Q04DX003 (ip), vehicle: saline 101 % of control | dose: 10.0 mg/kg/injection, schedule: Q04DX003 (ip), vehicle: saline 101 % of control | dose: 20.0 mg/kg/injection, schedule: Q04DX003 (ip), vehicle: saline 100 % of control

O=C(Nc1ccc2ccccc2c1)OC1CCS(=O)(=O)C1 (configuration not stated)
inactive: dose: 75.0 mg/kg/injection, schedule: Q04DX003 (ip), vehicle: saline 102 % of control | dose: 150.0 mg/kg/injection, schedule: Q04DX003 (ip), vehicle: saline 102 % of control | dose: 300.0 mg/kg/injection, schedule: Q04DX003 (ip), vehicle: saline 98 % of control

O=C1CC(c2ccccc2)C(c2ccccc2)=C1Cl (configuration not stated)
inactive: [1] 94 % of control | [2] 98 % of control | [3] 96 % of control
